Reference: the NIST ThermoML archive (doi:10.1016/j.jct.2005.12.005)

Experiments:
[1] = refractive index (Na D-line) (dimensionless); settings: 101.33 kPa, Liquid
[2] = 101 kPa, Liquid; for speed of sound: Sing-around technique in a fixed-path interferometer
[3] = refractive index (Na D-line) (dimensionless); xn = mol fraction of the nth substance listed; settings: 101 kPa, Liquid
[4] = xn = mol fraction of the nth substance listed; settings: 101 kPa, Liquid; for speed of sound: Sing-around technique in a fixed-path interferometer

Cc1cc(C)cc(C)c1 [1,3,5-trimethylbenzene]
Settings	mass density, 298.15 K [kg/m3]	mass density, 303.15 K [kg/m3]	mass density, 308.15 K [kg/m3]	refractive index, 298.15 K	refractive index, 303.15 K	refractive index, 308.15 K	speed of sound, 298.15 K [m/s]	viscosity, 298.15 K [mPa·s]	viscosity, 303.15 K [mPa·s]	viscosity, 308.15 K [mPa·s]
[1]	–	–	–	1.496	1.4936	1.4913	–	–	–	–
[2]	861.2	857.1	853	–	–	–	1346	0.667	0.622	0.586

Cc1ccc(C)cc1 [1,4-dimethylbenzene]
Settings	mass density, 298.15 K [kg/m3]	mass density, 303.15 K [kg/m3]	mass density, 308.15 K [kg/m3]	refractive index, 298.15 K	refractive index, 303.15 K	refractive index, 308.15 K	speed of sound, 298.15 K [m/s]	viscosity, 298.15 K [mPa·s]	viscosity, 303.15 K [mPa·s]	viscosity, 308.15 K [mPa·s]
[1]	–	–	–	1.4926	1.4893	1.4867	–	–	–	–
[2]	856.7	852.3	848	–	–	–	1326	0.611	0.572	0.54

COc1ccccc1 [anisole]
Settings	mass density, 298.15 K [kg/m3]	mass density, 303.15 K [kg/m3]	mass density, 308.15 K [kg/m3]	refractive index, 298.15 K	refractive index, 303.15 K	refractive index, 308.15 K	speed of sound, 298.15 K [m/s]	viscosity, 298.15 K [mPa·s]	viscosity, 303.15 K [mPa·s]	viscosity, 308.15 K [mPa·s]
[1]	–	–	–	1.5136	1.5112	1.5088	–	–	–	–
[2]	989.2	984.5	979.8	–	–	–	1410	1.008	0.929	0.861

c1ccccc1 [benzene]
Settings	mass density, 298.15 K [kg/m3]	mass density, 303.15 K [kg/m3]	mass density, 308.15 K [kg/m3]	refractive index, 298.15 K	refractive index, 303.15 K	refractive index, 308.15 K	speed of sound, 298.15 K [m/s]	viscosity, 298.15 K [mPa·s]	viscosity, 303.15 K [mPa·s]	viscosity, 308.15 K [mPa·s]
[1]	–	–	–	1.4971	1.4936	1.4903	–	–	–	–
[2]	873.4	868.1	862.7	–	–	–	1302	0.602	0.56	0.523

CC1CCCCC1 [methylcyclohexane] + Cc1ccc(C)cc1
Settings	mass density, 298.15 K [kg/m3]	mass density, 303.15 K [kg/m3]	mass density, 308.15 K [kg/m3]	refractive index, 298.15 K	refractive index, 303.15 K	refractive index, 308.15 K	speed of sound, 298.15 K [m/s]	viscosity, 298.15 K [mPa·s]	viscosity, 303.15 K [mPa·s]	viscosity, 308.15 K [mPa·s]
[3], x1 = 0.0993	–	–	–	1.4848	1.482	1.4793	–	–	–	–
[3], x1 = 0.2037	–	–	–	1.4767	1.4743	1.4718	–	–	–	–
[3], x1 = 0.3028	–	–	–	1.469	1.4668	1.4646	–	–	–	–
[3], x1 = 0.4047	–	–	–	1.4615	1.4594	1.4572	–	–	–	–
[3], x1 = 0.5382	–	–	–	1.4519	1.4498	1.4476	–	–	–	–
[3], x1 = 0.6035	–	–	–	1.4473	1.4451	1.443	–	–	–	–
[3], x1 = 0.703	–	–	–	1.4405	1.4384	1.4362	–	–	–	–
[3], x1 = 0.8037	–	–	–	1.4338	1.4314	1.429	–	–	–	–
[3], x1 = 0.8981	–	–	–	1.4279	1.4253	1.4228	–	–	–	–
[3], x1 = 1	–	–	–	1.4217	1.4192	1.4163	–	–	–	–
[4], x1 = 0.0993	846.6	842.3	837.9	–	–	–	1315	0.597	0.566	0.536
[4], x1 = 0.2037	836.2	831.8	827.5	–	–	–	1303	0.59	0.557	0.523
[4], x1 = 0.3028	826.4	822.1	817.8	–	–	–	1293	0.587	0.553	0.52
[4], x1 = 0.4047	816.7	812.3	808	–	–	–	1282	0.586	0.553	0.52
[4], x1 = 0.5382	804.2	799.9	795.5	–	–	–	1268	0.593	0.559	0.525
[4], x1 = 0.6035	798.3	794	789.6	–	–	–	1261	0.597	0.562	0.528
[4], x1 = 0.703	789.5	785.1	780.8	–	–	–	1250	0.608	0.573	0.537
[4], x1 = 0.8037	780.8	776.5	772.2	–	–	–	1239	0.625	0.588	0.55
[4], x1 = 0.8981	773	768.7	764.4	–	–	–	1228	0.646	0.607	0.569
[4], x1 = 1	765	760.7	756.3	–	–	–	1217	0.676	0.631	0.59

CC1CCCCC1 [methylcyclohexane] + Cc1ccccc1
Settings	mass density, 298.15 K [kg/m3]	mass density, 303.15 K [kg/m3]	mass density, 308.15 K [kg/m3]	refractive index, 298.15 K	refractive index, 303.15 K	refractive index, 308.15 K	speed of sound, 298.15 K [m/s]	viscosity, 298.15 K [mPa·s]	viscosity, 303.15 K [mPa·s]	viscosity, 308.15 K [mPa·s]
[3], x1 = 0.1027	–	–	–	1.4838	1.4811	1.4783	–	–	–	–
[3], x1 = 0.205	–	–	–	1.475	1.4723	1.4696	–	–	–	–
[3], x1 = 0.3034	–	–	–	1.4666	1.4641	1.4615	–	–	–	–
[3], x1 = 0.4043	–	–	–	1.4586	1.4561	1.4537	–	–	–	–
[3], x1 = 0.5031	–	–	–	1.4511	1.4486	1.4461	–	–	–	–
[3], x1 = 0.5988	–	–	–	1.4443	1.4418	1.4392	–	–	–	–
[3], x1 = 0.7061	–	–	–	1.4373	1.4347	1.4321	–	–	–	–
[3], x1 = 0.8005	–	–	–	1.4315	1.4289	1.4263	–	–	–	–
[3], x1 = 0.8984	–	–	–	1.4261	1.4234	1.4208	–	–	–	–
[3], x1 = 1	–	–	–	1.4217	1.4192	1.4163	–	–	–	–
[4], x1 = 0.1027	849.5	844.9	840.3	–	–	–	1304	0.551	0.52	0.49
[4], x1 = 0.205	837.5	832.9	828.3	–	–	–	1295	0.547	0.518	0.489
[4], x1 = 0.3034	826.6	822	817.5	–	–	–	1285	0.548	0.517	0.487
[4], x1 = 0.4043	816	811.5	807	–	–	–	1275	0.556	0.523	0.491
[4], x1 = 0.5031	806.3	801.8	797.3	–	–	–	1266	0.564	0.532	0.5
[4], x1 = 0.5988	797.3	792.8	788.4	–	–	–	1256	0.577	0.544	0.51
[4], x1 = 0.7061	787.8	783.4	779	–	–	–	1246	0.592	0.558	0.524
[4], x1 = 0.8005	780	775.6	771.2	–	–	–	1237	0.614	0.577	0.54
[4], x1 = 0.8984	772.4	768	763.7	–	–	–	1227	0.643	0.603	0.563
[4], x1 = 1	765	760.7	756.3	–	–	–	1217	0.676	0.631	0.59

CC1CCCCC1 [methylcyclohexane] + c1ccccc1
Settings	mass density, 298.15 K [kg/m3]	mass density, 303.15 K [kg/m3]	mass density, 308.15 K [kg/m3]	refractive index, 298.15 K	refractive index, 303.15 K	refractive index, 308.15 K	speed of sound, 298.15 K [m/s]	viscosity, 298.15 K [mPa·s]	viscosity, 303.15 K [mPa·s]	viscosity, 308.15 K [mPa·s]
[3], x1 = 0.104	–	–	–	1.484	1.481	1.4779	–	–	–	–
[3], x1 = 0.2045	–	–	–	1.4728	1.4702	1.4675	–	–	–	–
[3], x1 = 0.302	–	–	–	1.4628	1.4604	1.458	–	–	–	–
[3], x1 = 0.4006	–	–	–	1.455	1.4524	1.4499	–	–	–	–
[3], x1 = 0.5007	–	–	–	1.4475	1.4448	1.4422	–	–	–	–
[3], x1 = 0.6004	–	–	–	1.441	1.4384	1.4357	–	–	–	–
[3], x1 = 0.7056	–	–	–	1.4341	1.4316	1.4292	–	–	–	–
[3], x1 = 0.8033	–	–	–	1.429	1.4262	1.4235	–	–	–	–
[3], x1 = 0.8982	–	–	–	1.4245	1.4219	1.4192	–	–	–	–
[3], x1 = 1	–	–	–	1.4217	1.4192	1.4163	–	–	–	–
[4], x1 = 0.104	855.9	850.7	845.5	–	–	–	1293	0.584	0.546	0.509
[4], x1 = 0.2045	840.8	835.8	830.7	–	–	–	1284	0.566	0.53	0.494
[4], x1 = 0.302	827.6	822.7	817.8	–	–	–	1276	0.561	0.527	0.492
[4], x1 = 0.4006	815.8	811	806.2	–	–	–	1267	0.556	0.523	0.49
[4], x1 = 0.5007	805	800.3	795.6	–	–	–	1259	0.559	0.527	0.496
[4], x1 = 0.6004	795.3	790.6	786	–	–	–	1250	0.571	0.537	0.504
[4], x1 = 0.7056	785.9	781.4	776.8	–	–	–	1242	0.597	0.564	0.531
[4], x1 = 0.8033	778.5	774	769.5	–	–	–	1234	0.617	0.583	0.549
[4], x1 = 0.8982	771.4	767	762.6	–	–	–	1225	0.647	0.607	0.567
[4], x1 = 1	765	760.7	756.3	–	–	–	1217	0.676	0.631	0.59

Cc1ccccc1 [toluene] + CC1CCCCC1
x2 = 0
Settings	mass density, 298.15 K [kg/m3]	mass density, 303.15 K [kg/m3]	mass density, 308.15 K [kg/m3]	refractive index, 298.15 K	refractive index, 303.15 K	refractive index, 308.15 K	speed of sound, 298.15 K [m/s]	viscosity, 298.15 K [mPa·s]	viscosity, 303.15 K [mPa·s]	viscosity, 308.15 K [mPa·s]
[3]	–	–	–	1.4931	1.4902	1.4874	–	–	–	–
[4]	862.3	857.6	852.9	–	–	–	1314	0.559	0.526	0.497
